These results are taken from patent publication US12209089B1, “Pyrimido[1′,6′: 1,5]pyrazolo[4,3-c] [2,7] naphthyridines as CK2 inhibitors” (KING FAISAL UNIVERSITY, priority 2024, dated 2025).

In one assay the test system is HCT116 (colon). The assay can be described thus: In vitro cytotoxic activity (MTT) assay, HCT116. As to conditions: Homo sapiens, HCT-116; HCT116 (colon) cells, 96 hours exposure; read-out: Cytotoxicity activity IC50 (50% inhibition of cell proliferation). Type of assay: cell-based. The method, then:
(§1) Compounds 1-16 were screened for their in vitro cytotoxic activity utilizing a 3-(4,5-dimethyl-thiazol-2-yl)-2,5-diphenyltetrazolium bromide (MTT) assay against selected cancer human cell lines consisting of PC3 (prostate), HCT116 (colon), A375 (melanoma), H1299 (lung), MIAPaCa-2 (pancreas), HL60 (leukemia), MCF7 (breast), MDA-MB-231 (breast) (T. Mosmann, J. Immunol. Meth., 1983, 65, 55-63). The cells were cultured at 37° C. in RMPI1640 medium supplemented with 10% fetal bovine serum, 50 IU/mL penicillin, and 50 μg/mL streptomycin in a 5% CO2 incubator. All cells were sub-cultured 3 times/week by trypsinisation. Viable cells were seeded and allowed to adhere for 12 hours before a test drug was added in 96-well plates at an initial density of 1.0×10^5 cells/mL. Tumor cell lines were separately exposed to various concentrations of the tested compounds followed by incubation at a temperature of 37° C. during 96 hours inside a medium of fresh RMPI 1640. Cells were subsequently incubated at 37° C. using MTT at 0.5 mg/mL during 4 hours. After removal of supernatant, formazan crystals were dissolved in isopropanol and the optical density was measured at 570 nm. CX-4945 was used as a positive control.

A further assay has as its system HL60 (leukemia). In words: In vitro cytotoxic activity (MTT) assay, HL60. Type of assay: cell-based. Particulars: Homo sapiens, HL-60; HL60 (leukemia) cells, 96 hours exposure; read-out: Cytotoxicity activity IC50 (50% inhibition of cell proliferation). The method, then: as §1
A further assay concerns MCF7 (breast). The assay can be described thus: In vitro cytotoxic activity (MTT) assay, MCF7. As to conditions: Homo sapiens; MCF7 (breast) cells, 96 hours exposure; read-out: Cytotoxicity activity IC50 (50% inhibition of cell proliferation). Format: cell-based. On the procedure:
as §1

The subject of the next assay is MDA-MB-231 (breast). In words: In vitro cytotoxic activity (MTT) assay, MDA-MB-231. As to conditions: Homo sapiens; MDA-MB-231 (breast) cells, 96 hours exposure; read-out: Cytotoxicity activity IC50 (50% inhibition of cell proliferation). Format: cell-based. The method, then:
as §1

The subject of a further assay is MIAPaCa-2 (pancreas). The assay can be described thus: In vitro cytotoxic activity (MTT) assay, MIAPaCa-2. Type of assay: cell-based. Particulars: Homo sapiens, MIA PaCa-2; MIAPaCa-2 (pancreas) cells, 96 hours exposure; read-out: Cytotoxicity activity IC50 (50% inhibition of cell proliferation). The method, then:
as §1

The subject of a further assay is A375 (melanoma). In words: In vitro cytotoxic activity (MTT) assay, A375. Format: cell-based. As to conditions: Homo sapiens, A-375; A375 (melanoma) cells, 96 hours exposure; read-out: Cytotoxicity activity IC50 (50% inhibition of cell proliferation). On the procedure: as §1
In another assay the test system is PC3 (prostate). In words: In vitro cytotoxic activity (MTT) assay, PC3. Type of assay: cell-based. As to conditions: Homo sapiens, Prostate cell; PC3 (prostate) cells, 96 hours exposure; read-out: Cytotoxicity activity IC50 (50% inhibition of cell proliferation). On the procedure:
as §1

Assay [1] concerns the target T1, recombinant human CK2 (holoenzyme) (Homo sapiens, UniProt P68400).
T1 construct: purchased Millipore
The assay can be described thus: CK2 Kinase Assay (33P-ATP, filter plate). Type of assay: biochemical. Particulars: recombinant human CK2, 10 min at 30° C., eight concentrations; read-out: protein kinase CK2 IC50. On the procedure: CK2 Kinase Assay was conducted using the protocol as described in Pierre F. et al; J. Med. Chem. 2011, 54, 635-654. The tested compounds in aqueous solution were added at a volume of 10 μL to a reaction mixture comprising 10 μL of assay dilution buffer (ADB; 20 mM MOPS, pH 7.2, 25 mM B-glycerol phosphate, 5 mM EGTA, 1 mM sodium orthovanadate, and 1 mM dithiothreitol), 10 μL of substrate peptide (RRRDDDSDDD, dissolved in ADB at a concentration of 1 mM), 10 μL of recombinant human CK2 (RRBB-holoenzyme, 25 ng dissolved in ADB; Millipore). Reactions were initiated by the addition of 10 μL of ATP solution (90% 75 mMMgCl2, 75 μM ATP (final ATP concentration: […]) dissolved in ADB; 10% [y-33P]ATP (stock 1mCi/100 μL; 3000 Ci/mmol (Perkin-Elmer) and maintained for 10 min at 30° C. The reactions were quenched with 100 μL of 0.75% phosphoric acid and then transferred to and filtered through a phosphor cellulose filter plate (Millipore). After washing each well five times with 0.75% phosphoric acid, the plate was dried under vacuum for 5 min and, following the addition of 15 μL of scintillation fluid to each well, the residual radioactivity was measured using a Wallac […] counter. The IC50 values were derived from eight concentrations of test inhibitors.

Another assay concerns H1299 (lung). In words: In vitro cytotoxic activity (MTT) assay, H1299. Format: cell-based. As to conditions: Homo sapiens, NCI-H1299; H1299 (lung) cells, 96 hours exposure; read-out: Cytotoxicity activity IC50 (50% inhibition of cell proliferation). The method, then: as §1

T1 sequence (P68400 whole entry): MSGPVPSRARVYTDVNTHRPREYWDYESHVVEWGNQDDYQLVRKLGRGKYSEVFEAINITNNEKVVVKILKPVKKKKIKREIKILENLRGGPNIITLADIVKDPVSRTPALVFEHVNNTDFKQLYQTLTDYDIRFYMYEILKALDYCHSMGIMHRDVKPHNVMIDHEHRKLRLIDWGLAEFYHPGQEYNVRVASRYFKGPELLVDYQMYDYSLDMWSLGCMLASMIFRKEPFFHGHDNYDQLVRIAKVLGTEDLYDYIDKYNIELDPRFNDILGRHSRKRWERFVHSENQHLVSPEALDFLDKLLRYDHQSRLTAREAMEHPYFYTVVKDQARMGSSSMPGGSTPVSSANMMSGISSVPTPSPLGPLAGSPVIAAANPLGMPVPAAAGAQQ
T1 sequence (P67870 whole entry partner): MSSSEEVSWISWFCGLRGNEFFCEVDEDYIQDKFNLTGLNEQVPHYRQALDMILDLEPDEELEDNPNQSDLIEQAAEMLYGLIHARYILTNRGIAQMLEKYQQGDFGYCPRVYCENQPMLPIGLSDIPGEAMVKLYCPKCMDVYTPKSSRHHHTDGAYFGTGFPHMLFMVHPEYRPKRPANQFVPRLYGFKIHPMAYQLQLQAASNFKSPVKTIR

Regarding `Clc1cccc(Nc2nc3c(nn4cnccc34)c3ccncc23)c1` [Compound 1, N-(3-chlorophenyl)pyrimido[1′,6′: 1,5]pyrazolo[4,3-c][2,7]naphthyridin-5-amine], the IC50 with HCT116 (colon) amounted to 1200 nM; in the assay with HL60 (leukemia), 4 µM; in the assay on MCF7 (breast), 5.3 µM; in the assay with MDA-MB-231 (breast) it was 4.5 µM; in the assay with MIAPaCa-2 (pancreas), 1100 nM; in the assay on A375 (melanoma), 3.6 µM. Further, the IC50 is 1400 nM in the assay on PC3 (prostate), 30 nM in [1] and 2300 nM with H1299 (lung).
